Test results as given in ChEMBL document CHEMBL5661943, “ASAP - In vitro antiviral effect” (2024).

Experiments:
[1] = tested on: Zika virus; assay: Functional CPE-based assay to measure dose dependent changes in antiviral-drug inhibitory efficacy against Zika virus MR766 in Vero E6 miRFP670 cells. Cells are treated with antiviral candidates that are serially diluted. EC50 is reported via analysis of MTS assay as a readout of CPE. The assay has been performed by KU Leuven.; type: organism-based, Chlorocebus sabaeus, Vero C1008; details: Zika virus
[2] = tested on: dengue virus type 2; assay: Functional assay to measure dose dependent changes in antiviral-drug inhibitory efficacy against Dengue virus type 2 New Guinea C in Vero E6 miRFP670 cells (cotreated with P-gp inhibitor, CP100356). Cells are treated with antiviral candidates that are serially diluted, following infection, cells are fixed. EC50 is reported via analysis of fluorescence intensity using high-content imager. The …; type: organism-based, Chlorocebus sabaeus, Vero C1008; details: Dengue virus

**Q.** For `NCc1cccc(NC(=O)[C@H](NC(=O)OCc2ccccc2)c2ccc(Br)c(Cl)c2)c1`, which EC50 ([1]; Vero C1008) is on record?
**A.** The EC50 was greater than 50 µM.

**Q.** And the EC90 ([1]; Vero C1008, Baseline response 0 %, Hill slope 4.111, Maximum measured 16.618 %, Maximum response 100 %, Minimum measured -5.242 %, R squared 0.822)?
**A.** Its EC90 is greater than 50 µM.

**Q.** And the EC50 ([2]; Vero C1008)?
**A.** The EC50 was 27.9 µM.

**Q.** What about the EC90 ([2]; Vero C1008, Baseline response 0 %, Hill slope -1.252, Maximum measured 107.5 %, Maximum response 100 %, Minimum measured 22.965 %, P-gp concentration 500 nM, R squared 0.543, P-gp inhibitor CP100356) of the same compound?
**A.** The EC90 was greater than 50 µM.

**Q.** `COc1cccc(-c2ccc([C@@H](NC(=O)OCc3ccccc3)C(=O)Nc3cccc(CN)c3)cc2)c1` was tested. Which EC50 ([1]; Vero C1008) did it give?
**A.** The EC50 was greater than 50 µM.

**Q.** And the EC90 ([1]; Vero C1008, Maximum measured 5.224 %, Minimum measured -9.76 %)?
**A.** The EC90 was greater than 50 µM.

**Q.** And the EC50 ([2]; Vero C1008)?
**A.** The EC50 was 11.3 µM.

**Q.** What about the EC90 ([2]; Vero C1008) of the same compound?
**A.** Its EC90 is 13 µM.

**Q.** Which EC50 ([1]; Vero C1008) does the source give for `CCOCCNC(=O)c1cc(Cl)ccc1NS(=O)(=O)c1ccc(Oc2ccccc2Cl)cc1` here?
**A.** Its EC50 is greater than 50 µM.

**Q.** What about the EC90 ([1]; Vero C1008, Maximum measured 1.013 %, Minimum measured -2.996 %) of the same compound?
**A.** Its EC90 is greater than 50 µM.

**Q.** And the EC50 ([2]; Vero C1008)?
**A.** Its EC50 is 7.26 µM.

**Q.** What about the EC90 ([2]; Vero C1008, Baseline response 0 %, EC90 CI (lower) 5.297 uM, EC90 CI (upper) 7.186 uM, Hill slope -13.477, Maximum measured 106.241 %, Maximum response 100 %, Minimum measured 0.021 %, P-gp concentration 500 nM, R squared 0.993, P-gp inhibitor CP100356) of the same compound?
**A.** The EC90 was 8.55 µM.

**Q.** Which results are given for `COc1cc(-c2cc(Cl)cc(NC(=O)OCc3ccccc3)c2)c(OC)cc1CC(=O)O`?
**A.** EC50 ([1]; Vero C1008): > 50 µM; EC90 ([1]; Vero C1008, Baseline response 0 %, Hill slope 0.25, Maximum measured 21.22 %, Maximum response 100 %, Minimum measured 1.079 %, R squared 0.113): > 50 µM

**Q.** What does the source list for `CCNC(=O)Nc1cc(Cl)cc(C(=O)Nc2cccc(CN)c2)c1`?
**A.** EC50 ([1]; Vero C1008): > 50 µM; EC90 ([1]; Vero C1008, Baseline response 0 %, Hill slope -0.392, Maximum measured 2.06 %, Maximum response 100 %, Minimum measured -2.343 %, R squared 0.131): > 50 µM; EC50 ([2]; Vero C1008): > 50 µM; EC90 ([2]; Vero C1008, Maximum measured 108.516 %, Minimum measured 107.498 %, P-gp concentration 500 nM, P-gp inhibitor CP100356): > 50 µM

**Q.** `O=C(O)c1cc(Cl)c(F)cc1S(=O)(=O)Nc1ccc(Oc2ccccc2Cl)cc1` was tested. Which EC50 ([1]; Vero C1008) did it give?
**A.** Its EC50 is 39.6 µM.

**Q.** What about the EC90 ([1]; Vero C1008, Baseline response 0 %, EC90 CI (lower) 44.524 uM, EC90 CI (upper) 54.445 uM, Hill slope 10.107, Maximum measured 91.318 %, Maximum response 100 %, Minimum measured 0.941 %, R squared 0.971) of the same compound?
**A.** The EC90 was 49.2 µM.

**Q.** And the EC50 ([2]; Vero C1008)?
**A.** Its EC50 is 25.1 µM.

**Q.** What about the EC90 ([2]; Vero C1008, Baseline response 0 %, Hill slope -22.82, Maximum measured 108.329 %, Maximum response 100 %, Minimum measured 0.118 %, P-gp concentration 500 nM, R squared 0.881, P-gp inhibitor CP100356) of the same compound?
**A.** Its EC90 is 27.7 µM.

**Q.** For `NCc1cccc(NC(=O)[C@@H](NC(=O)OCc2ccccc2)c2ccc(-c3cc4cccnc4s3)cc2)c1`, which EC50 ([1]; Vero C1008) is on record?
**A.** Its EC50 is greater than 50 µM.

**Q.** What about the EC90 ([1]; Vero C1008, Baseline response 0 %, Hill slope 2.61, Maximum measured 41.685 %, Maximum response 100 %, Minimum measured -5.482 %, R squared 0.949) of the same compound?
**A.** Its EC90 is greater than 50 µM.

**Q.** What about the EC50 ([2]; Vero C1008) of the same compound?
**A.** Its EC50 is greater than 50 µM.

**Q.** What about the EC90 ([2]; Vero C1008, Baseline response 0 %, Hill slope -1.813, Maximum measured 108.419 %, Maximum response 100 %, Minimum measured 62.17 %, P-gp concentration 500 nM, R squared 0.703, P-gp inhibitor CP100356) of the same compound?
**A.** Its EC90 is greater than 50 µM.

**Q.** Which EC50 ([1]; Vero C1008) does the source give for `O=C(Nc1cc(Cl)cc(-c2cccc3c(C(=O)O)cccc23)c1)OCc1ccccc1` here?
**A.** Its EC50 is greater than 50 µM.

**Q.** And the EC90 ([1]; Vero C1008, Maximum measured -0.778 %, Minimum measured -5.402 %)?
**A.** The EC90 was greater than 50 µM.

**Q.** With `NCc1cccc(NC(=O)[C@H](NC(=O)OCc2ccccc2)C2CCC(c3ccccc3)CC2)c1` (stereo partly specified) as the compound, how does the EC50 ([1]; Vero C1008) read?
**A.** The EC50 was greater than 50 µM.

**Q.** What about the EC90 ([1]; Vero C1008, Baseline response 0 %, Hill slope 12.54, Maximum measured 11.506 %, Maximum response 100 %, Minimum measured -10.271 %, R squared 0.094) of the same compound?
**A.** The EC90 was greater than 50 µM.

**Q.** And the EC50 ([2]; Vero C1008)?
**A.** The EC50 was 6.69 µM.

**Q.** What about the EC90 ([2]; Vero C1008, Baseline response 0 %, EC90 CI (lower) 1.121 uM, EC90 CI (upper) 23.089 uM, Hill slope -8.04, Maximum measured 108.249 %, Maximum response 100 %, Minimum measured 2.62 %, P-gp concentration 500 nM, R squared 0.836, P-gp inhibitor CP100356) of the same compound?
**A.** Its EC90 is 8.79 µM.

**Q.** With `NCc1cc(Cl)cc(C(=O)Nc2ccc3c(c2)CNC3)c1` as the compound, how does the EC50 ([1]; Vero C1008) read?
**A.** Its EC50 is greater than 50 µM.

**Q.** And the EC90 ([1]; Vero C1008, Maximum measured 0.38 %, Minimum measured -0.268 %)?
**A.** The EC90 was greater than 50 µM.

**Q.** And the EC50 ([2]; Vero C1008)?
**A.** The EC50 was greater than 50 µM.

**Q.** And the EC90 ([2]; Vero C1008, Maximum measured 110.007 %, Minimum measured 106.028 %, P-gp concentration 500 nM, P-gp inhibitor CP100356)?
**A.** Its EC90 is greater than 50 µM.
